The source of these data is article PMC9958325 (Nature Communications, 2023).

SMILES strings stand for the structures. Several values for one entry are separate records, joined by “and”; a condition that tells them apart may be missing. Equal entries are not always repeated. Where two headings read alike, the source gives them in different places.

Experiment [1] concerns SARS-CoV-2 QHN001/α. The experiment is described as follows: microbe, parasite or virus in culture. It is filed as cell-based.
In experiment [2] the test system is SARS-CoV-2 TY8-612/β. Kind of experiment: microbe, parasite or virus in culture. It is filed as cell-based.
Experiment [3] deals with SARS-CoV-2 TY7-501/γ. The experiment is described as follows: microbe, parasite or virus in culture. In kind it is cell-based.
Experiment [4] has as its system SARS-CoV-2 K1734/δ. The experiment is described as follows: microbe, parasite or virus in culture. In kind it is cell-based.
For experiment [5], the system named is SARS-CoV-2 5356/κ. Kind of experiment: microbe, parasite or virus in culture. In kind it is cell-based.
The test system of experiment [6] is SARS-CoV-2^WK-521. Kind of experiment: microbe, parasite or virus in culture. The conditions noted are these: read-out: EC50 in cell-based assays. It is filed as cell-based.
Experiment [7] has as its system SARS-CoV-2 Delta, BA.1 and BA.2 variants. Also on record: species or system hACE2 knock-in mice. The settings on record: mouse, in vivo, ip.
The test system is the same in experiment [8]. On the set-up: species or system hACE2 knock-in mice. The conditions noted are these: mouse, in vivo.
The target in experiment [9] is Glycine-added M^pro (Severe acute respiratory syndrome coronavirus 2, UniProt P0DTD1).
[10] abbreviates: read-out: EC50 α, individual assays.
Where [11] appears, read: read-out: EC50 β, individual assays.
Setting [12] is: read-out: EC50 γ, individual assays.
The mark [13] stands for this setting: read-out: EC50 δ, individual assays.
The mark [14] stands for this setting: read-out: EC50 κ, individual assays.
Setting [15] is: read-out: EC50 against QHN001/α.
Where [16] appears, read: read-out: EC50 against TY8-612/β.
Setting [17] is: read-out: EC50 against Y7-501/γ.

In the case of `CC(C)(C)[C@H](NC(=O)C(F)(F)F)C(=O)N1C[C@H]2[C@@H]([C@H]1C(=O)N[C@H](C#N)C[C@@H]1CCNC1=O)C2(C)C` [Nirmatrelvir, reference compound], the EC50 in experiment [1] (Severe acute respiratory syndrome coronavirus 2, Vero C1008, read-out: EC50 against QHN001/α) stood at 1.98 ± 0.559 µM; in experiment [1] (Severe acute respiratory syndrome coronavirus 2, Vero C1008, read-out: EC50 α, Average), 1.98 µM; in experiment [1] (Severe acute respiratory syndrome coronavirus 2, Vero C1008, read-out: EC50 α, individual assays), 2.54 µM; in experiment [1] (setting [10]), 1.42 µM; in [2] (Severe acute respiratory syndrome coronavirus 2, Vero C1008, read-out: EC50 against TY8-612/β), 1.5 ± 0.24 µM; in [2] (Severe acute respiratory syndrome coronavirus 2, Vero C1008, read-out: EC50 β, Average) it was 1.5 µM. Further, the EC50 in experiment [2] (Severe acute respiratory syndrome coronavirus 2, Vero C1008, read-out: EC50 β, individual assays) was 1.56 µM; in [2] (setting [11]) it was 1.7 µM and 1.23 µM; in [3] (Severe acute respiratory syndrome coronavirus 2, Vero C1008, read-out: EC50 against Y7-501/γ), 2.49 ± 0.292 µM; in [3] (Severe acute respiratory syndrome coronavirus 2, Vero C1008, read-out: EC50 γ, Average) it was 2.49 µM; in experiment [3] (Severe acute respiratory syndrome coronavirus 2, Vero C1008, read-out: EC50 γ, individual assays) it was 2.5 µM; in [3] (setting [12]), 2.2 µM and 2.78 µM. In addition, the EC50 is 1.5 ± 0.078 µM in experiment [4] (Severe acute respiratory syndrome coronavirus 2, Vero C1008, read-out: EC50 against K1734/δ); 1.51 µM in experiment [4] (Severe acute respiratory syndrome coronavirus 2, Vero C1008, read-out: EC50 δ, individual assays); 1.42 µM and 1.57 µM in experiment [4] (setting [13]); 1.66 ± 0.606 µM in experiment [5] (Severe acute respiratory syndrome coronavirus 2, Vero C1008, read-out: EC50 against 5356/k); 1.66 µM in [5] (Severe acute respiratory syndrome coronavirus 2, Vero C1008, read-out: EC50 κ, Average); 1.65 µM and 2.27 µM and 1.06 µM in [5] (setting [14]).
Consider `CC(C)(C)[C@H](NC(=O)C(F)(F)F)C(=O)N1C[C@H]2[C@@H]([C@H]1C(=O)N[C@@H](C[C@@H]1CCNC1=O)C(=O)c1nc3c(F)cccc3s1)C2(C)C` [TKB245], for which the EC50 was ~0.03 µM in experiment [6]; 0.042 ± 0.042 µM in [1] (setting [15]); 0.042 µM in experiment [1] (read-out: EC50 α, Average); 0.09 µM and 0.02 µM and 0.0158 µM in experiment [1] (setting [10]); 0.028 ± 0.009 µM in [2] (setting [16]); 0.0284 µM in experiment [2] (read-out: EC50 β, Average). Moreover, the EC50 was 0.019 µM and 0.036 µM in experiment [2] (setting [11]); 0.056 ± 0.045 µM in experiment [3] (setting [17]); 0.0561 µM in experiment [3] (read-out: EC50 γ, Average); 0.01 µM and 0.0582 µM and 0.1 µM in [3] (setting [12]); 0.0304 µM in experiment [4] (read-out: EC50 δ, Average); 0.0276 µM and 0.0336 µM in experiment [4] (setting [13]). Moreover, the EC50 in experiment [5] (read-out: EC50 κ, Average) is 0.0206 µM; in experiment [5] (setting [14]), 0.0192 µM and 0.0224 µM. The “Effect on lung virus titers (in words)” value in experiment [7] was “considerably reduced titers of both variants in lung”. Moreover, the “Chest micro-CT images vs vehicle control” value in [8] is given as “No relevant differences were”. The “Lung immunohistochemistry, SARS-CoV-2 nucleocapsid protein vs vehicle group” value in experiment [8] was “no relevant change in number”.
For `CC(C)(C)[C@H](NC(=O)C(F)(F)F)C(=O)N1C[C@H]2[C@@H]([C@H]1C(=S)N[C@@H](C[C@@H]1CCNC1=O)C(=O)c1nc3c(F)cccc3s1)C2(C)C` [TKB248], the EC50 was 0.3 ± 0.001 µM in experiment [1] (setting [15]); 0.3 µM in experiment [1] (read-out: EC50 α, Average); 0.3 µM and 0.299 µM in [1] (setting [10]); 0.287 ± 0.005 µM in experiment [2] (setting [16]); 0.288 µM in [2] (read-out: EC50 β, Average); 0.29 µM and 0.291 µM and 0.282 µM in [2] (setting [11]). Also, the EC50 was 0.228 ± 0.061 µM in [3] (setting [17]); 0.228 µM in experiment [3] (read-out: EC50 γ, Average); 0.288 µM and 0.165 µM in experiment [3] (setting [12]); 0.273 ± 0.036 µM in [4] (read-out: EC50 against K1734/δ); 0.274 µM in experiment [4] (read-out: EC50 δ, Average); 0.27 µM and 0.311 µM and 0.24 µM in experiment [4] (setting [13]). The EC50 in experiment [5] (read-out: EC50 against 5356/k) is 0.18 ± 0.035 µM; in [5] (read-out: EC50 κ, Average), 0.18 µM; in experiment [5] (setting [14]) it was 0.215 µM and 0.145 µM. For the same molecule, the “Effect on lung virus titers (in words)” value in experiment [7] was “exerted comparable efficacy against both Omicron BA.1 and BA.2 variants”. In addition, the “Peak ratio, Dimer-1X compound” value in experiment [9] is on record as 9.9%. In addition, the “Peak ratio, Dimer-2X compound” value in experiment [9] was 28.4%.
